From article PMC10535268, “Design, Synthesis, and Evaluation of Novel Indole Hybrid Chalcones and Their Antiproliferative and Antioxidant Activity” (Molecules, 2023)

Key:
[1] = tested on: Jurkat; experiment: MTT antiproliferative assay, Jurkat; assay type: cell-based, human; settings: 72 h incubation, mean ± SD of three independent experiments
[2] = tested on: HCT116; experiment: MTT antiproliferative assay, HCT116; assay type: cell-based, human; settings: HCT116, 72 h incubation, mean ± SD of three independent experiments
[3] = ABTS radical scavenging activity; settings: sample 1 mM, 30 min, gallic acid equivalents, mean (±SD), triplicate
Description: (§1) Table 3 Antioxidant activity.

[4] = tested on: Hela; experiment: MTT antiproliferative assay, HeLa; assay type: cell-based, human; settings: 72 h incubation, mean ± SD of three independent experiments
Experimental: Table 2 IC50 (μM) ± SD of tested compounds in different cell lines after 72 h incubation. | column: Cell Line, IC50 (µM) ± SD / Hela

[5] = tested on: breast cancer cells; settings: flow cytometry, Western blot, fluorescence microscopy; cited from earlier work
[6] = tested on: MCF-7; experiment: MTT antiproliferative assay, MCF-7; assay type: cell-based, human; settings: MCF-7, 72 h incubation, mean ± SD of three independent experiments
[7] = Ferric reducing antioxidant power (FRAP); settings: sample 1 mM, 30 min, gallic acid equivalents, mean (±SD), triplicate
Description: as §1

[8] = tested on: MCF-10A; experiment: MTT cytotoxicity assay, non-cancer MCF-10A; assay type: cell-based, human; settings: 72 h incubation, mean ± SD of three independent experiments
[9] = tested on: MDA-MB-231; experiment: MTT antiproliferative assay, MDA-MB-231; assay type: cell-based, human; settings: MDA-MB-231, 72 h incubation, mean ± SD of three independent experiments
[10] = DPPH radical scavenging activity; settings: sample 1 mM, 30 min, gallic acid equivalents, mean (±SD), triplicate
[11] = tested on: Bj-5ta; experiment: MTT cytotoxicity assay, non-cancer Bj-5ta; assay type: cell-based, human; settings: Homo sapiens, 72 h incubation, mean ± SD of three independent experiments
[12] = tested on: normal human liver cell line (L02); design: method as in Lagu et al. 19; settings: ref Lagu et al. 19; cited from earlier work
[13] = design: method as in Lagu et al. 19; settings: compared to standard drugs; ref Lagu et al. 19; cited from earlier work

CCCOc1[nH]c2ccccc2c1/C=C/C(=O)c1ccccc1F [11f, (2E)-1-(2″-Fluorophenyl)-3-(2′-propoxy-1′H-indol-3′-yl)prop-2-en-1-one]
IC50 [1]: 37.7 ± 1.1 µM
IC50 [2]: 34.4 ± 1.1 µM
ABTS [3]: 175.1 (±10.4) µmol GAE/mmol
IC50 [4]: 45.3 ± 0.7 µM
mode of cell death [5]: induce cell cycle arrest in the G2/M phase and apoptosis
IC50 [6]: 37.3 ± 1.5 µM
FRAP [7]: 183.5 (±0.9) µmol GAE/mmol
IC50 [8]: > 100 µM
IC50 (µM) ± SD, MCF-10A [8]: minimal effect
IC50 [9]: 34 ± 3 µM
DPPH [10]: 227.3 (±11.0) µmol GAE/mmol

O=C(/C=C/c1c[nH]c2ccccc12)c1ccc(C(F)(F)F)cc1 [12a, (2E)-3-(1H-indol-3-yl)-1-(4-trifluoromethylphenyl) prop-2-en-1-one]
IC50 ([1]; Homo sapiens): > 100 µM
IC50 ([2]; Homo sapiens, HCT-116, 72 h): 59.1 ± 1.1 µM
IC50 [11]: > 100 µM
IC50 ([4]; Homo sapiens, HeLa, 72 h): 68.1 ± 3.3 µM
cytotoxicity on normal human liver cell line (L02) [12]: without showing cytotoxicity
antimicrobial activity [13]: greatest antimicrobial activity
IC50 ([6]; Homo sapiens, MCF7, 72 h): 43.4 µM
IC50 [6]: 43.3 ± 0.6 µM
IC50 ([8]; Homo sapiens, MCF-10A, 72 h): > 100 µM
IC50 ([9]; Homo sapiens): > 100 µM
melting point: 195 to 197 °C
